According to US8053435B2, “Naphthalenyloxypropenyl derivatives having inhibitory activity against histone deacetylase and pharmaceutical composition comprising the same” (Korea Research Institute of Chemical Technology, priority 2006, dated 2011):
Where two headings read alike, the source gives them in different places.

Tests used:
[1] = tested on: colon cancer cells HCT116; assay: Inhibitory activity against proliferation of cancer cells, SRB (Sulforhodamine B) analysis; type: cell-based; conditions: read-out: Inhibitory conc. against cancer cell growth (EC50 μM) HCT116
Method: Cancer cells were inoculated into a 96-well microplate at a concentration of 1×10^3˜3×10^3 cells/well and incubated under the condition of 37° C., 5% CO2 for 24 hrs. After the incubation was completed, 0.2, 1, 5, 25, or 100 μM of each of the compounds of Examples was added to the plate, and then the reactant was incubated for 48 hrs. After the substrate was stained with SRB, the anti-cancer activity was determined by comparing the amount of protein in the cells treated with the compound of Examples with that of protein in untreated cells.
Specifically, after the incubation was completed, the culture medium was removed from each well, and the cells were washed 3 times with PBS (pH 7.4). Then, a solution of 50% trichloroacetic acid (TCA) was added to each well in an amount of 50 μl/well at 4° C. for 1 hr to fix them. Then, the microplate was washed 5 times with distilled water and dried in air. […]
50 μl of a staining solution prepared by dissolving 0.4% SRB in 1% acetic acid was added to the wells, and the microplate was kept at room temperature for 1 hr. The well plate was then washed 5 times with 1% acetic acid to remove unbound SRB and dried in air. The stained cells were treated with 150 μl/well of 10 mM Tris-HCl solution (pH 10.5) to elute SRB from the cells, and the absorbance of the cells treated with the compounds of examples at 540 nm was measured, based on the absorbance of an untreated cell. The EC50 value representing inhibition of the cancer cell growth by the extent of 50% was calculated from the measured absorbance, and the results are shown in Table 6.

[2] = tested on: HDAC; assay: Inhibitory activity against HDAC (BIOMOL Quantizyme Assay system, Fluor de Lys substrate); type: biochemical; conditions: HeLa nuclear extract as source of HDAC enzymes, enzyme reaction 1 hr
Method: HDAC activity was analyzed using BIOMOL Quantizyme™ Assay system which comprised two steps of 1) enzyme reaction between HDAC and a substrate and 2) determination of the level of HDAC inhibitory activity.
(§1) 0.5 μl of HeLa nuclear organic layer (10 μM) (a source of HDAC enzymes) was then added thereto to a final concentration of 100 nM. The enzyme reaction was carried out for 1 hr.
Subsequently, in step 2), 2 μM tricostatin A was added to 50 μl of Flour de Lys™ developer, followed by allowing the mixture to react at room temperature for 15 minutes. The light excited at 355 nm and emitted at 460 nm from the fluorophore was measured with a fluorometric plate reader. The intensity of the fluorescence increases as the enzyme activity is higher. The HDAC inhibitory activity of each of the test compounds was determined and compared with that of the control.
0.5 μl of HeLa nuclear organic layer (10 μM) (a source of HDAC enzymes) was then added thereto to a final concentration of 100 nM, The enzyme reaction was carried out for 1 hr.
as §1, §1

[3] = Homo sapiens, HCT-116, Table 6, 48 hrs incubation with compound
[4] = Table 5, formula (3) series, read-out: Inhibitory conc. (IC50, μM/ml)
[5] = Homo sapiens, HCT-116, Table 8, 48 hrs incubation with compound
[6] = Table 7, formula (4) series, read-out: HDAC Inhibitory conc. (IC50, μM/ml)

Compound	EC50 [1, 3] [µM]	IC50 [2, 4] [µM]	EC50 [1, 5] [µM]	IC50 [2, 6] [µM]	EC50 ([1]; Table 6, 48 hrs incubation with compound) [µM]
O=C(CCCC/C=C(/CNCCN1CCOCC1)COc1cccc2ccccc12)NO [Example 3-1, (Z)—N-hydroxy-8-(2-morpholinoethylamino)-7-((naphthalen-1-yloxy)methyl)oct-6-enamide]	0.2	0.002	–	–	–
COCC(C)NC/C(=C/CCCCC(=O)NO)COc1cccc2ccccc12 (centres unmarked) [Example 3-2, (Z)—N-Hydroxy-8-(1-methoxypropan-2-ylamino)-7-((naphthalen-1-yloxy)methyl)oct-6-enamide]	0.2	0.005	–	–	–
O=C(CCCC/C=C(/CNCCCN1CCCC1=O)COc1cccc2ccccc12)NO [Example 3-3, (Z)—N-Hydroxy-8-(naphthalen-1-yloxy)-7-((3-(2-oxopyrrolidin-1-yl)propylamino)methyl)oct-6-enamide]	0.5	0.003	–	–	–
O=C(CCCC/C=C(/CNCCCn1ccnc1)COc1cccc2ccccc12)NO [Example 3-4, (Z)-8-(3-(1H-Imidazol-1-yl)propylamino)-N-hydroxy-7-((naphthalen-1-yloxy)methyl)oct-6-enamide]	0.7	0.003	–	–	–
CN(C)CC(C)(C)CNC/C(=C/CCCCC(=O)NO)COc1cccc2ccccc12 [Example 3-7, (Z)-8-(3-(Dimethylamino)-2,2-dimethylpropylamino)-N-hydroxy-7-((naphthalen-1-yloxy)methyl)oct-6-enamide]	1.2	0.012	–	–	–
O=C(CCCC/C=C(/CNCCN1CCCC1)COc1cccc2ccccc12)NO [Example 3-8, (Z)—N-Hydroxy-8-(naphthalen-1-yloxy)-7-((2-(pyrrolidin-1-yl)ethylamino)methyl)oct-6-enamide]	0.5	0.005	–	–	–
COCCNC/C(=C/CCCCC(=O)NO)COc1cccc2ccccc12 [Example 3-10, (Z)—N-Hydroxy-8-(2-methoxyethylamino)-7-((naphthalen-1-yloxy)methyl)oct-6-enamide]	< 0.2	0.006	–	–	–
CC(C)N1CCC(NC/C(=C/CCCCC(=O)NO)COc2cccc3ccccc23)CC1 [Example 3-11, (Z)—N-Hydroxy-8-(1-isopropylpiperidin-4-ylamino)-7-((naphthalen-1-yloxy)methyl)oct-6-enamide]	1.3	0.012	–	–	–
O=C(CCCC/C=C(/CNCc1cccs1)COc1cccc2ccccc12)NO [Example 3-14, (Z)—N-Hydroxy-8-(naphthalen-1-yloxy)-7-((thiophen-2-ylmethylamino)methyl)oct-6-enamide]	0.3	0.002	–	–	–
(Z)-8-(4-Fluorophenethylamino)-N-hydroxy-7-((naphthalen-1-yloxy)methyl)oct-enamide [Example 3-9]	–	0.003	–	–	0.4

Further lines, results first:

EC50 [1, 3] [µM]	IC50 [2, 4] [µM]	EC50 [1, 5] [µM]	IC50 [2, 6] [µM]	EC50 ([1]; Table 6, 48 hrs incubation with compound) [µM]	Compound
–	–	1.1	0.014	–	CCN1CCC(NC/C(=C/c2ccc(C(=O)NO)cc2)COc2cccc3ccccc23)CC1 [Example 4-1, (Z)-4-(3-(1-ethylpiperidin-4-ylamino)-2-((naphthalen-1-yloxy)methyl)prop-1-enyl)-N-hydroxybenzamide]
–	–	0.8	0.017	–	CCN1CCC(NC/C(=C/c2ccc(C(=O)NO)cc2)COc2cccc3ccccc23)C1 (centres unmarked) [Example 4-2, (Z)-4-(3-(1-ethylpyrrolidin-3-ylamino)-2-((naphthalen-1-yloxy)methyl)prop-1-enyl)-N-hydroxybenzamide]
–	–	10	0.016	–	O=C(NO)c1ccc(/C=C(/CNC2CCN(C3CCCC3)CC2)COc2cccc3ccccc23)cc1 [Example 4-7, (Z)-4-(3-(1-cyclopentylpiperidin-4-ylamino)-2-((naphthalen-1-yloxy)methyl)prop-1-enyl)-N-hydroxybenzamide]
–	–	0.5	0.011	–	O=C(NO)c1ccc(/C=C(/CNC2CCN(C3CC3)CC2)COc2cccc3ccccc23)cc1 [Example 4-10, (Z)-4-(3-(1-cyclopropylpiperidin-4-ylamino)-2-((naphthalen-1-yloxy)methyl)prop-1-enyl)-N-hydroxybenzamide]
–	–	1	0.023	–	O=C(NO)c1ccc(/C=C(/CNC2CCN(C3CC3)C2)COc2cccc3ccccc23)cc1 (centres unmarked) [Example 4-11, (Z)-4-(3-(1-cyclopropylpyrrolidin-3-ylamino)-2-((naphthalen-1-yloxy)methyl)prop-1-enyl)-N-hydroxybenzamide]
–	–	< 0.2	0.005	–	COCC(C)NC/C(=C/c1ccc(C(=O)NO)cc1)COc1cccc2ccccc12 (centres unmarked) [Example 4-13, (Z)—N-hydroxy-4-(3-(1-methoxypropan-2-ylamino)-2-((naphthalen-1-yloxy)methyl)prop-1-enyl)benzamide]
–	–	0.4	0.014	–	CC(C)N1CCC(NC/C(=C/c2ccc(C(=O)NO)cc2)COc2cccc3ccccc23)CC1 [Example 4-15, (Z)—N-hydroxy-4-(3-(1-isopropylpiperidin-4-ylamino)-2-((naphthalen-1-yloxy)methyl)prop-1-enyl)benzamide]
–	–	0.7	0.003	–	O=C(NO)c1ccc(/C=C(/CNCCCn2ccnc2)COc2cccc3ccccc23)cc1 [Example 4-16, (Z)-4-(3-(3-(1H-imidazol-1-yl)propylamino)-2-((naphthalen-1-yloxy)methyl)prop-1-enyl)-N-hydroxybenzamide]
–	–	< 0.2	0.003	–	O=C(NO)c1ccc(/C=C(/CNCCc2ccc(O)cc2)COc2cccc3ccccc23)cc1 [Example 4-17, (Z)—N-hydroxy-4-(3-(4-hydroxyphenethylamino)-2-((naphthalen-1-yloxy)methyl)prop-1-enyl)-benzamide]
–	–	0.31	0.006	–	CN(C)CC(C)(C)CNC/C(=C/c1ccc(C(=O)NO)cc1)COc1cccc2ccccc12 [Example 4-18, (Z)-4-(3-(3-(dimethylamino)-2,2-dimethylpropylamino)-2-((naphthalen-1-yloxy)methyl)prop-1-enyl)-N-hydroxybenzamide]
–	–	0.8	0.016	–	CC(C)N(CCNC/C(=C/c1ccc(C(=O)NO)cc1)COc1cccc2ccccc12)C(C)C [Example 4-19, (Z)-4-(3-(2-(diisopropylamino)ethylamino)-2-((naphthalen-1-yloxy)methyl)prop-1-enyl)-N-hydroxybenzamide]
–	–	< 0.2	0.01	–	COCCNC/C(=C/c1ccc(C(=O)NO)cc1)COc1cccc2ccccc12 [Example 4-20, (Z)—N-hydroxy-4-(3-(2-methoxyethylamino)-2-((naphthalen-1-yloxy)methyl)prop-1-enyl)-benzamide]
–	–	1.3	0.02	–	O=C(NO)c1ccc(/C=C(/CNCc2cccs2)COc2cccc3ccccc23)cc1 [Example 4-22, (Z)—N-hydroxy-4-(3-(naphthalen-1-yloxy)-2-((thiophen-2-ylmethylamino)methyl)prop-1-enyl)benzamide]
–	–	0.8	0.04	–	COc1ccc(CCNC/C(=C/c2ccc(C(=O)NO)cc2)COc2cccc3ccccc23)cc1 [Example 4-23, (Z)—N-hydroxy-4-(3-(4-methoxyphenethylamino)-2-((naphthalen-1-yloxy)methyl)prop-1-enyl)-benzamide]
–	–	0.5	0.011	–	CN(C)c1ccc(CNC/C(=C/c2ccc(C(=O)NO)cc2)COc2cccc3ccccc23)cc1 [Example 4-24]
